Assay results taken from PubChem BioAssay AID296 (DTP/NCI, 2004).
Values joined by “and” are separate entries in the source; they are usually repeats but may differ in a detail not shown here. Equal values may be shown once. Results filed as inconclusive are left out.

Tested on: MX-1 breast xenograft, nude mice, tumor weight T/C
Test: NCI In Vivo Anticancer Drug Screen. Data for tumor model Human Mammary Carcinoma MX-1 Xenograft (intrarenal inoculation) in NU/NU Swiss (nude) mice
Conditions: endpoint: mean tumor weight change, higher = larger tumour
How it was run: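 Read-out: treated (T) over vehicle control (C) ratio of survival or tumor size. Dosing in animals carrying the transplanted tumor.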

[1] = dose: 75.0 mg/kg/injection, schedule: Q04DX003 (sc), vehicle: Klucel (hydroxypropylcellulose) (HPC)
[2] = dose: 300.0 mg/kg/injection, schedule: Q04DX003 (sc), vehicle: Klucel (hydroxypropylcellulose) (HPC)
[3] = dose: 300.0 mg/kg/injection, schedule: Q04DX003 (sc), vehicle: saline
[4] = dose: 600.0 mg/kg/injection, schedule: Q04DX003 (sc), vehicle: saline
[5] = dose: 1200.0 mg/kg/injection, schedule: Q04DX003 (sc), vehicle: saline
[6] = dose: 25.0 mg/kg/injection, schedule: Q01DX010 (sc), vehicle: suspension in saline
[7] = dose: 50.0 mg/kg/injection, schedule: Q01DX010 (sc), vehicle: suspension in saline
[8] = dose: 100.0 mg/kg/injection, schedule: Q01DX010 (sc), vehicle: suspension in saline
[9] = dose: 200.0 mg/kg/injection, schedule: Q01DX010 (sc), vehicle: suspension in saline
[10] = dose: 100.0 mg/kg/injection, schedule: Q04DX003 (sc), vehicle: saline
[11] = dose: 150.0 mg/kg/injection, schedule: Q04DX003 (sc), vehicle: saline
[12] = dose: 200.0 mg/kg/injection, schedule: Q04DX003 (sc), vehicle: saline with Tween-80
[13] = dose: 400.0 mg/kg/injection, schedule: Q04DX003 (sc), vehicle: saline with Tween-80
[14] = dose: 300.0 mg/kg/injection, schedule: Q04DX003 (sc), vehicle: saline with Tween-80

C[C@]12C=CC(=O)C=C1CC[C@@H]1[C@@H]2[C@@H](O)C[C@@]2(C)[C@H]1CC[C@]2(O)C(=O)CO
T/C (dose: 12.5 mg/kg/injection, schedule: Q01DX010 (sc), vehicle: Klucel (hydroxypropylcellulose) (HPC)): 50 % of control
T/C (dose: 25.0 mg/kg/injection, schedule: Q01DX010 (sc), vehicle: Klucel (hydroxypropylcellulose) (HPC)): 67 % of control
T/C (dose: 50.0 mg/kg/injection, schedule: Q01DX010 (sc), vehicle: Klucel (hydroxypropylcellulose) (HPC)): 55 % of control
T/C (dose: 100.0 mg/kg/injection, schedule: Q01DX010 (sc), vehicle: Klucel (hydroxypropylcellulose) (HPC)): 24 % of control

COc1cc(NS(C)(=O)=O)ccc1Nc1c2ccccc2nc2ccccc12
T/C (dose: 0.75 mg/kg/injection, schedule: Q01DX010 (sc), vehicle: lactic acid): 124 % of control
T/C (dose: 3.75 mg/kg/injection, schedule: Q01DX010 (sc), vehicle: clinical formulation): 54 % of control

CC(C)NC(=O)N(CCCCBr)N=O
T/C [1]: 42 % of control and 47 % of control
T/C [2]: 40 % of control

CN1CCN(Cc2nc3cccc4c3c([n+]2[O-])-c2ccccc2-4)CC1
T/C (dose: 12.5 mg/kg/injection, schedule: Q01DX010 (sc), vehicle: saline with Tween-80): 72 % of control
T/C (dose: 25.0 mg/kg/injection, schedule: Q01DX010 (sc), vehicle: saline with Tween-80): 96 % of control
T/C (dose: 400.0 mg/kg/injection, schedule: Q01DX010 (sc), vehicle: saline with Tween-80): 35 % of control

CC(=O)OCC1OC(n2ccc(N)nc2=O)C(OC(C)=O)C1OC(C)=O (stereo not given)
T/C (dose: 150.0 mg/kg/injection, schedule: Q04DX003 (sc), vehicle: suspension in saline): 89 % of control
T/C [3]: 107 % of control
T/C [4]: 82 % of control
T/C [5]: 84 % of control
T/C (dose: 2400.0 mg/kg/injection, schedule: Q04DX003 (sc), vehicle: suspension in saline): 14 % of control

COc1cccc2c1C(=O)c1c(O)c3c(c(O)c1C2=O)C[C@@](O)(C(C)=O)C[C@@H]3OC1CC(N(C)C)C(O)C(C)O1 (stereo not given in full)
T/C (dose: 2.0 mg/kg/injection, schedule: Q01DX010 (sc), vehicle: water): 293 % of control
T/C (dose: 4.0 mg/kg/injection, schedule: Q01DX010 (sc), vehicle: water): 120 % of control

CC(C)CCCCCCCCCCCCC(=O)NCC(=O)NC1C(O)C(O)C(Nc2ncnc3nc[nH]c23)OC1C(O)CO (stereo not given)
T/C (dose: 0.31 mg/kg/injection, schedule: Q01DX010 (sc), vehicle: saline): 158 % of control
T/C (dose: 0.4 mg/kg/injection, schedule: Q01DX010 (sc), vehicle: saline): 194 % of control
T/C (dose: 0.63 mg/kg/injection, schedule: Q01DX010 (sc), vehicle: saline): 105 % of control
T/C (dose: 0.8 mg/kg/injection, schedule: Q01DX010 (sc), vehicle: saline): 93 % of control
T/C (dose: 1.25 mg/kg/injection, schedule: Q01DX010 (sc), vehicle: saline): 80 % of control
T/C (dose: 1.6 mg/kg/injection, schedule: Q01DX010 (sc), vehicle: saline): 40 % of control

O=C(O)C1(C(=O)O)CCC1.[NH2-].[NH2-].[Pt+2]
T/C (dose: 12.5 mg/kg/injection, schedule: Q01DX010 (sc), vehicle: dextrose): 2 % of control and 11 % of control
T/C (dose: 50.0 mg/kg/injection, schedule: Q01DX010 (sc), vehicle: dextrose): -87 % of control and -75 % of control

O=C1CN(CN2CCOCC2)C(=O)CN1CN1CCOCC1
T/C [6]: 117 % of control
T/C [7]: 119 % of control
T/C [8]: 161 % of control
T/C [9]: 87 % of control

O=c1[nH]c(=O)n(C2OC(CO)C(O)C2O)cc1F (stereo not given)
T/C (dose: 9.38 mg/kg/injection, schedule: Q01DX010 (sc), vehicle: saline): 21 % of control

Oc1ccc(O)cc1
T/C (dose: 25.0 mg/kg/injection, schedule: Q04DX003 (sc), vehicle: saline): 81 % of control
T/C (dose: 50.0 mg/kg/injection, schedule: Q04DX003 (sc), vehicle: saline): 71 % of control
T/C [10]: 75 % of control

CCN(CC)c1ccc2cc(-c3nc4ccccc4n3C)c(=O)oc2c1
T/C [1]: 119 % of control
T/C (dose: 150.0 mg/kg/injection, schedule: Q04DX003 (sc), vehicle: Klucel (hydroxypropylcellulose) (HPC)): 104 % of control
T/C [2]: 123 % of control

O=C1C(O)=C(c2ccccc2)C(=O)C(O)=C1c1ccccc1
T/C (dose: 75.0 mg/kg/injection, schedule: Q04DX003 (sc), vehicle: saline): 118 % of control
T/C [11]: 74 % of control
T/C [3]: 61 % of control

C=C(C)[C@@H]1CCc2c(O)c(O)c(=O)cc(C)c2C1
T/C [11]: 91 % of control
T/C [3]: 107 % of control
T/C [4]: 89 % of control
T/C [5]: 98 % of control

C/C=C(\C)c1cc(=O)c2c(C)cc3c(c2o1)C(=O)c1c(O)c(C2CC(C)(N(C)C)C(O)C(C)O2)cc(C2CC(N(C)C)C(O)C(C)O2)c1C3=O (stereo not given)
T/C (dose: 2.0 mg/kg/injection, schedule: Q04DX003 (sc), vehicle: saline): 41 % of control
T/C (dose: 4.0 mg/kg/injection, schedule: Q04DX003 (sc), vehicle: saline): 24 % of control
T/C (dose: 8.0 mg/kg/injection, schedule: Q04DX003 (sc), vehicle: saline): 28 % of control

CC(=O)/C(=C\c1ccc(Cl)c(Cl)c1)C(=O)CCN(C)C
T/C (dose: 25.0 mg/kg/injection, schedule: Q04DX003 (ip), vehicle: saline): 166 % of control
T/C (dose: 50.0 mg/kg/injection, schedule: Q04DX003 (ip), vehicle: saline): 98 % of control
T/C (dose: 100.0 mg/kg/injection, schedule: Q04DX003 (ip), vehicle: saline): 83 % of control

C1OCN2CSCC12 (stereo not given)
T/C (dose: 100.0 mg/kg/injection, schedule: Q04DX003 (sc), vehicle: saline with Tween-80): 94 % of control
T/C [12]: 158 % of control
T/C [13]: 80 % of control

C=C(C)C(=O)OC1C/C(CO)=C\C(O)C/C(C)=C/C2OC(=O)C(=C)C21 (stereo not given)
T/C (dose: 20.0 mg/kg/injection, schedule: Q04DX003 (sc), vehicle: saline + alcohol): 55 % of control
T/C (dose: 40.0 mg/kg/injection, schedule: Q04DX003 (sc), vehicle: saline + alcohol): 106 % of control
T/C (dose: 80.0 mg/kg/injection, schedule: Q04DX003 (sc), vehicle: saline + alcohol): 66 % of control

O=c1cnn(C2OC(CO)C(O)C2O)c(=O)[nH]1 (stereo not given)
T/C (dose: 200.0 mg/kg/injection, schedule: Q01DX010 (sc), vehicle: saline): 79 % of control
T/C (dose: 400.0 mg/kg/injection, schedule: Q01DX010 (sc), vehicle: saline): 77 % of control

Oc1ccccc1C=NCCC[N-]CCCN=Cc1ccccc1O.[Co]
T/C [6]: 85 % of control
T/C [7]: 93 % of control
T/C [8]: 40 % of control
T/C [9]: 31 % of control

O=C(O)CC(NC(=O)CP(=O)(O)O)C(=O)O (stereo not given)
T/C (dose: 50.0 mg/kg/injection, schedule: Q01DX010 (sc), vehicle: saline): 117 % of control
T/C (dose: 100.0 mg/kg/injection, schedule: Q01DX010 (sc), vehicle: saline): 25 % of control and 34 % of control

c1cc(OCC2CO2)ccc1OCC1CO1 (stereo not given)
T/C [14]: 110 % of control
T/C (dose: 600.0 mg/kg/injection, schedule: Q04DX003 (sc), vehicle: saline with Tween-80): 103 % of control
T/C (dose: 1200.0 mg/kg/injection, schedule: Q04DX003 (sc), vehicle: saline with Tween-80): 92 % of control
T/C (dose: 2400.0 mg/kg/injection, schedule: Q04DX003 (sc), vehicle: saline with Tween-80): 106 % of control

CCCNC1=C(C)C(=O)C2=C(C1=O)[C@H](COC(N)=O)[C@]1(OC)[C@@H]3N[C@@H]3CN21
T/C (dose: 6.0 mg/kg/injection, schedule: Q04DX003 (sc), vehicle: suspension in saline): 1 % of control
T/C (dose: 12.0 mg/kg/injection, schedule: Q04DX003 (sc), vehicle: suspension in saline): -83 % of control

CCC(C(=O)O)C(=O)O.[NH-]CC1CCCC[N-]1.[Pt+2]
T/C [10]: 51 % of control
T/C [12]: -98 % of control
T/C (dose: 200.0 mg/kg/injection, schedule: Q04DX003 (sc), vehicle: saline): 20 % of control
T/C [14]: -98 % of control
T/C (dose: 300.0 mg/kg/injection, schedule: Q04DX003 (sc), vehicle: suspension in saline): 14 % of control and 26 % of control
T/C [13]: -100 % of control
T/C (dose: 400.0 mg/kg/injection, schedule: Q04DX003 (sc), vehicle: saline): 2 % of control
T/C (dose: 400.0 mg/kg/injection, schedule: Q04DX003 (sc), vehicle: suspension in saline): 28 % of control and 32 % of control
T/C (dose: 500.0 mg/kg/injection, schedule: Q04DX003 (sc), vehicle: saline with Tween-80): -100 % of control
T/C (dose: 500.0 mg/kg/injection, schedule: Q04DX003 (sc), vehicle: suspension in saline): 3 % of control and 20 % of control
